Results: ChEMBL document CHEMBL1777706, “Discovery of selective and orally available spiro-3-piperidyl ATP-competitive MK2 inhibitors” (Bioorg Med Chem Lett, 2011)
Active and inactive are the calls of the source. The calls are words filed in the database; no cut-off is given here.

Columns and labels:
[1] = target: Serine/threonine-protein kinase Chk2 (Homo sapiens) (UniProt O96017); assay: Inhibition of CHK2 at 1 uM
[2] = target: Serine/threonine-protein kinase pim-3 (Homo sapiens) (UniProt Q86V86); assay: Inhibition of PIM3 at 1 uM
[3] = target: Mitogen-activated protein kinase 3 (Homo sapiens) (UniProt P27361); assay: Inhibition of ERK1 at 1 uM
Sequence of Mitogen-activated protein kinase 3 (Homo sapiens) (P27361 whole entry): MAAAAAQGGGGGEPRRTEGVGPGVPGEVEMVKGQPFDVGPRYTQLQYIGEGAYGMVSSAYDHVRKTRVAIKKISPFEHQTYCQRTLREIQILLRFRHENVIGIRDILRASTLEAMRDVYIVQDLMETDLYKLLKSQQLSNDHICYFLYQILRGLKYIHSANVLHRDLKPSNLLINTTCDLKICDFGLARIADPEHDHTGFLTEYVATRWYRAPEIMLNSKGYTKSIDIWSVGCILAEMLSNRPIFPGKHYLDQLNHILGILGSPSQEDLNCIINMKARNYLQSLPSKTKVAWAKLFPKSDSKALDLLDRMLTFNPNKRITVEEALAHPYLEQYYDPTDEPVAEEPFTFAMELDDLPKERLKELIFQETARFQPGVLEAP

[4] = target: Mitogen-activated protein kinase 1 (Homo sapiens) (UniProt P28482); assay: Inhibition of ERK2 at 1 uM
Sequence of Mitogen-activated protein kinase 1 (Homo sapiens) (P28482 whole entry, looked up): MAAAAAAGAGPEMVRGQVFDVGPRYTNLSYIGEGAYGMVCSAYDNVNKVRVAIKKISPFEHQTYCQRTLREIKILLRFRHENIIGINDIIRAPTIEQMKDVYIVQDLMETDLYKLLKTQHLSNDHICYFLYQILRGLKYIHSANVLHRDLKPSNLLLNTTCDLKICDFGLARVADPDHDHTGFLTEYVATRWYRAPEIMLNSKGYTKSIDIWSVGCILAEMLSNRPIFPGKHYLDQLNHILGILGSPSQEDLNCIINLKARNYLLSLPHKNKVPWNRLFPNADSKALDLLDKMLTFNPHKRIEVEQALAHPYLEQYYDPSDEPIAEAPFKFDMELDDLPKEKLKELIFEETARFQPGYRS

[5] = target: T1, Serine/threonine-protein kinase 17A (Homo sapiens) (UniProt Q9UEE5); assay: Inhibition of DRAK1 at 1 uM
T1 sequence (whole entry): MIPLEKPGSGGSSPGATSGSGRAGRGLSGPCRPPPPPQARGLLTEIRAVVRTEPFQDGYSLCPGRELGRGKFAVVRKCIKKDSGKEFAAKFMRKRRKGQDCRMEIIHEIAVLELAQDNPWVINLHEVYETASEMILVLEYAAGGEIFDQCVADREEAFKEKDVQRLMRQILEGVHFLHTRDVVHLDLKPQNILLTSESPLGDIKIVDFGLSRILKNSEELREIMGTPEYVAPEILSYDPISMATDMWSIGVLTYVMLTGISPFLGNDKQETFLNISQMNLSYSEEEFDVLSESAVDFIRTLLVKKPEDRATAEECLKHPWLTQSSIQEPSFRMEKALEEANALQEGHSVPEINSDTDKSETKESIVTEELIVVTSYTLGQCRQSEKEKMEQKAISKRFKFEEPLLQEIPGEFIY

[6] = Half life in rat liver microsomes; assay type: ADME, Microsome
[7] = target: T2, MAP kinase-activated protein kinase 2 (Homo sapiens, UniProt P49137); assay: Inhibition of MK2 pretreated for 30 mins before fluorescein labeled substrate peptide addition measured after 2 hrs by IMAP assay
T2 sequence (P49137 whole entry): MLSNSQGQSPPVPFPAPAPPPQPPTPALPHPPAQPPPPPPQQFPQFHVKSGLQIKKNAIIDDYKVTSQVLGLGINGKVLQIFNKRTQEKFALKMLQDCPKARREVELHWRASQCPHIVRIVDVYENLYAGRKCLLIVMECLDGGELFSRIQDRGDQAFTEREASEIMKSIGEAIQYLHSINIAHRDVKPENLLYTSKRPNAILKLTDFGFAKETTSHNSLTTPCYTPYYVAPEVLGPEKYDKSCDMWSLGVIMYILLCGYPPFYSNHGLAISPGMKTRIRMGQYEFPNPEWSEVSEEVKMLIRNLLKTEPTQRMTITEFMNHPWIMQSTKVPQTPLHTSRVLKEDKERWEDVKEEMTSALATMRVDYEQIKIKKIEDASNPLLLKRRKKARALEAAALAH

[8] = target: MAP kinase-activated protein kinase 3 (Homo sapiens) (UniProt Q16644); assay: Inhibition of MK3 at 1 uM
Sequence of MAP kinase-activated protein kinase 3 (Homo sapiens) (Q16644 whole entry, looked up): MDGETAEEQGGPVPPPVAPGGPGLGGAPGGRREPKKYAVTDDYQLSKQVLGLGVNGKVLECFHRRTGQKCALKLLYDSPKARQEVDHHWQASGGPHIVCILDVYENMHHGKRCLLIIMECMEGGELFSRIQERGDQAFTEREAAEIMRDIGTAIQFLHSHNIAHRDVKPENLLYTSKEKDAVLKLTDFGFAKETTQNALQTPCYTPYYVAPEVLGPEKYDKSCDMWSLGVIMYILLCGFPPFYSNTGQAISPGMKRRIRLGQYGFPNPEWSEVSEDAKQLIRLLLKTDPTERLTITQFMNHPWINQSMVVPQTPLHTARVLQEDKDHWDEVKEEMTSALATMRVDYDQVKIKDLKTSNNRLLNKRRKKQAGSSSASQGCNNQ

[9] = Inhibition of p38
[10] = target: T3, MAP kinase-activated protein kinase 5 (Homo sapiens) (UniProt Q8IW41); assay: Inhibition of MK5 at 1 uM
T3 sequence (whole entry): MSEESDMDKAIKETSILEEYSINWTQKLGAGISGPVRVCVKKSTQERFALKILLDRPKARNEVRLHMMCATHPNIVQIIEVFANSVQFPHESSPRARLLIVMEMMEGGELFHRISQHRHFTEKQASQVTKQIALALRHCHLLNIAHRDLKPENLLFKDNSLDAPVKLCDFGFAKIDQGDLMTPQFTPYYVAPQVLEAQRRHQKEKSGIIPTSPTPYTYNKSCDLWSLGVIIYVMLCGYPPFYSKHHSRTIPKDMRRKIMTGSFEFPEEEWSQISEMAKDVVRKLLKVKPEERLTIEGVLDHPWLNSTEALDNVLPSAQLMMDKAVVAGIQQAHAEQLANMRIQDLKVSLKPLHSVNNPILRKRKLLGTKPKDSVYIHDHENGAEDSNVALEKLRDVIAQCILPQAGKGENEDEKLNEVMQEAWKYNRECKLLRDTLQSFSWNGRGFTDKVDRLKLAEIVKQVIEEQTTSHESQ

[11] = target: T2, MAP kinase-activated protein kinase 2; assay: Inhibition of MK2 in LPS-stimulated human THP1 cells assessed as inhibition of Hsp27 phosphorylation pretreated 60 mins before LPS challenge measured after 10 mins; assay type: cell-based, THP-1
THP-1 [12] = assay: Antiinflammatory activity in human THP1 cells assessed as inhibition of LPS-induced TNFalpha production pretreated 30 mins before LPS challenge measured after 4 hrs; assay type: functional, cell-based
PBMC = assay: Antiinflammatory activity in human PBMC cells assessed as inhibition of LPS-induced TNFalpha production pretreated 30 mins before LPS challenge measured after 4 hrs by ELISA; assay type: functional, cell-based
[13] = target: Serine/threonine-protein kinase pim-1 (Homo sapiens) (UniProt P11309); assay: Inhibition of PIM1 at 1 uM
Sequence of Serine/threonine-protein kinase pim-1 (Homo sapiens) (P11309 whole entry, looked up): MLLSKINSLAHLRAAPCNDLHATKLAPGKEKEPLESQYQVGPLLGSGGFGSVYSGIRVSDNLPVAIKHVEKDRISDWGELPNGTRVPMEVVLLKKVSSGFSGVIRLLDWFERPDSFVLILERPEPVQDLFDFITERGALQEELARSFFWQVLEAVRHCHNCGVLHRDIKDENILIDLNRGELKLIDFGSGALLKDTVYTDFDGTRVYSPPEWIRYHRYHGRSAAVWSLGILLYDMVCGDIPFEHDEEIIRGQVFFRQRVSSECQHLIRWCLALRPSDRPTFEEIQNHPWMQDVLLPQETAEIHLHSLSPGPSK

[14] = Dissociation constant, pKa of the compound at pH 7.4; assay type: physicochemical
[15] = Half life in human liver microsomes; assay type: ADME, Microsome
[16] = AUC in po dosed rat; assay type: ADME, organism-based; conditions: plasma
in vitro = conditions: human, Caco-2
Description: Permeability across human Caco2 cells

[17] = Oral bioavailability in mouse; assay type: ADME, organism-based; conditions: in vivo
THP-1 [18] = assay: Cytotoxicity against human THP1 cells by Alamar blue assay; assay type: cell-based

Sequence of Serine/threonine-protein kinase Chk2 (Homo sapiens) (O96017 whole entry): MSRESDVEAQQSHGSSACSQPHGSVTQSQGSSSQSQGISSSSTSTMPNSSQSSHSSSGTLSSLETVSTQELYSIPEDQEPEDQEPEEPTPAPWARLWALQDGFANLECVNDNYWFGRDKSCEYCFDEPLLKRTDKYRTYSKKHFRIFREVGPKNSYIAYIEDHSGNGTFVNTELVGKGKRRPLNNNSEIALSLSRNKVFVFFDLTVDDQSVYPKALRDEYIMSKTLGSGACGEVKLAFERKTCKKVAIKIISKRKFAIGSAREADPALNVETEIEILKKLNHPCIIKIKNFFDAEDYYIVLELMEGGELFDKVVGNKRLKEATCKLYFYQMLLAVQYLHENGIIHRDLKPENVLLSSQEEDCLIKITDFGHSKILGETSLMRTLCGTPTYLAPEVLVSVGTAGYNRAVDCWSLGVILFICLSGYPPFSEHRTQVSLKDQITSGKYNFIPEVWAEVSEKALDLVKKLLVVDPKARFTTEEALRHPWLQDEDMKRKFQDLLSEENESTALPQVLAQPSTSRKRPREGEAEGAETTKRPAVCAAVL

| SMILES | inhibition [1] | inhibition [2] | inhibition [3] | inhibition [4] | inhibition [5] | half-life [6] | EC50 [7] | inhibition [8] | inhibition [9] | inhibition [10] | EC50 [11] | EC50 (THP-1 [12]) | EC50 (PBMC) | inhibition [13] | pKa [14] | half-life [15] | AUC [16] | Papp (in vitro) | bioavailability [17] | Activity (THP-1 [18]) |
| --- | --- | --- | --- | --- | --- | --- | --- | --- | --- | --- | --- | --- | --- | --- | --- | --- | --- | --- | --- | --- |
| COc1cncc(-c2nccc(-c3cc4c([nH]3)C3(CCCNC3)CNC4=O)n2)c1 (racemic) | > 80% | > 80% | > 80% | > 80% | > 80% | 0.702 h | 24 nM | > 95% | inactive | > 95% | 900 nM | 1400 nM | 1000 nM | > 80% | 8.4 | 0.945 h | – | – | – | – |
| O=C1NCC2(CCNCC2)c2[nH]c(-c3ccnc(-c4ccc5c(c4)OCO5)n3)cc21 | > 80% | > 80% | > 80% | > 80% | > 80% | > 1 h | 4.3 nM | – | inactive | – | 620 nM | 910 nM | – | > 80% | 9.3 | > 1 h | < 0.006 µM·h | 0.1 ×10⁻⁶ cm/s | 0.7% | – |
| O=C1NCC2(CCCNC2)c2[nH]c(-c3ccnc(-c4ccc5c(c4)OCO5)n3)cc21 (racemic) | > 80% | > 80% | > 80% | > 80% | > 80% | 0.808 h | 28 nM | > 95% | inactive | > 95% | 930 nM | 1400 nM | 1100 nM | > 80% | 8.3 | > 1 h | 3.21 µM·h | 3.4 ×10⁻⁶ cm/s | 48% | – |
| O=C1NCC2(CCNCC2)c2[nH]c(-c3ccnc(-c4cc5ccccc5o4)n3)cc21 | > 80% | > 80% | > 80% | > 80% | > 80% | > 1 h | 5.9 nM | – | inactive | – | 1200 nM | 280 nM | – | > 80% | 9.1 | > 1 h | < 0.006 µM·h | – | – | > 10 µM |
| COCCCOc1ccc(-c2nccc(-c3cc4c([nH]3)C3(CCCNC3)CNC4=O)n2)cn1 (racemic) | > 80% | > 80% | > 80% | > 80% | > 80% | > 1 h | 21 nM | – | inactive | – | 1400 nM | 1500 nM | 920 nM | > 80% | 8.2 | > 1 h | 0.882 µM·h | 4.2 ×10⁻⁶ cm/s | – | – |
| O=C1NCC2(CCCNC2)c2[nH]c(-c3ccnc(-c4cc5ccccc5o4)n3)cc21 (racemic) | > 80% | > 80% | > 80% | > 80% | > 80% | > 1 h | 11 nM | – | inactive | – | – | – | – | > 80% | 8.4 | > 1 h | 0.472 µM·h | 1.5 ×10⁻⁶ cm/s | – | Non-toxic |
| CCN1CCC2(CC1)CNC(=O)c1cc(-c3ccnc(-c4cc5ccccc5o4)n3)[nH]c12 | > 80% | > 80% | > 80% | > 80% | > 80% | > 0.993 h | 59 nM | – | inactive | – | > 10000 nM | 1600 nM | – | > 80% | 8.6 | > 1 h | 0.154 µM·h | 0.8 ×10⁻⁶ cm/s | – | > 10 µM |
| O=C1NC[C@@]2(CCCNC2)c2[nH]c(-c3ccnc(-c4cccnc4)n3)cc21 | > 80% | > 80% | > 80% | > 80% | > 80% | – | 6.5 nM | – | inactive | – | 1200 nM | 1600 nM | 930 nM | > 80% | – | – | – | – | – | – |
| CN1CCC2(CC1)CNC(=O)c1cc(-c3ccnc(-c4cc5ccccc5o4)n3)[nH]c12 | > 80% | > 80% | > 80% | > 80% | > 80% | > 1 h | 13 nM | – | inactive | – | 1600 nM | 470 nM | – | > 80% | 8.1 | > 1 h | 0.078 µM·h | 1 ×10⁻⁶ cm/s | – | > 10 µM |
| COCCCOc1ccc(-c2nccc(-c3cc4c([nH]3)[C@]3(CCCNC3)CNC4=O)n2)cn1 | > 80% | > 80% | > 80% | > 80% | > 80% | – | 6.9 nM | – | inactive | – | 400 nM | 980 nM | 430 nM | > 80% | – | – | – | – | – | – |
| COCCCOc1ccc(-c2nccc(-c3cc4c([nH]3)[C@@]3(CCCNC3)CNC4=O)n2)cn1 | > 80% | > 80% | > 80% | > 80% | > 80% | – | 129 nM | – | inactive | – | > 10000 nM | > 10000 nM | 6900 nM | > 80% | – | – | – | – | – | – |
